Source: patent US12480848B2, “Crack sensor, preparation method therefor, and application thereof in micro-force measurement” (QILU UNIVERSITY OF TECHNOLOGY (SHANDONG ACADEMY OF SCIENCES), priority 2022, dated 2025)
pEC50: −log10 of the molar value. Like-named read-outs stand apart in the source and are kept apart here.

Tested on: cardiomyocytes (CM)
Assay: Drug evaluation: CM contractility (contractile force, beating rate) measured with the Ag/CNT-PDMS crack sensor
Conditions: for pEC50: Cardiomyocyte

In the case of CC(C)NCC(O)c1ccc(O)c(O)c1 (stereo not shown) [isoproterenol], the pEC50 (read-out: apparent EC50 of CM beating rate (dose-response curve)) was 7.15, the pEC50 (read-out: apparent EC50 of CM contractile force (dose-response curve)) was 7.03 and the “contractile force and beating rate” value (concentration increased from 0.1 nM to 1 μM) was “gradually increased”. The CM contractility (when the concentration reached 100 nM) was “became saturated”.
